# From patent US9856480B2, “Dnazyme for silencing the expression of EGFR” (DCB-USA LLC, priority 2013, dated 2018)
# Strand notation (5' to 3'): a small letter for the sugar, then the base; units joined by * are phosphorothioate-linked, units joined directly phosphodiester-linked; [ ] holds rarer units or linkages, { } end groups; capitals alone tell only the bases. d = 2'-deoxy (DNA)
# Assays:
# T790M EGFR mRNA = assay: Quantitative real-time PCR of EGFR mRNA knockdown; format: cell-based, human; settings: for T790M EGFR mRNA expression knocked down (quantitative real-time PCR): 100 nM, 48 h
# Experimental: (§1) A549, CL1-5, H1975, or CL97 was seeded onto 6-well at 3×10^5 cells/well and cultured overnight. Then, cells were separately treated with 100 nM DzControl or DzT790M-1 with lipofectamine 2000 (Invitrogen). After 48 h, total mRNA were extracted from DNAzyme-treated cells by Mestrisol following manufacturer's protocol. cDNA were synthesized by using RT III kit with random hexamers as primers (Invitrogen). The PCR primers were synthesized by Genomics BioSci & Tech (Taipei, Taiwan). The sequences of PCR primers are listed as follows: […]
# (§2) The parameters for PCR were: 95° C. for 10 min, then 25 cycles of PCR at 95° C. for 30 s, 60° C. for 30 s, and 72° C. for 60 s. 3% agarose gels were used for electrophoresis of PCR products. The intensity of bands were quantified by Image J. Quantitative RT-PCR was performed on 40 ng total mRNA with the LightCycler 480 system (Roche). The PCR mix contained 5 μl of 2× Probe Master mix, 100 nM of UPL probe (Roche Diagnostics, Penzberg, Germany), 200 nM of forward primer and reverse primer, 0.1 ul RNAseout (Invitrogen), and 0.025 ul RTIII enzyme (Invitrogen) in a total volume of 10 μl. PCR parameters were as follows: 50° C. for 40 min, then 45 cycles of PCR at 95° C. for 10 s, 60° C. for 10 s, and 72° C. for 2 s. Data were analyzed by LC480 software (Roche Diagnostics, Penzberg, Germany). The relative amount of EGFR mRNA was normalized to ACTB mRNA. The sequences of PCR primers are as follows: […]
# To examine the allele selectivity of DzT790M-1, EGFR mRNA knockdown efficiency was detected in two cell lines harboring wild-type EGFR (A549, CL1-5) and two cell lines containing EGFR T790M mutation (H1975, CL97). A549, CL1-5, H1975, or CL97 was seeded onto 6-well at 3×10^5 cells/well and cultured overnight. Then, cells were separately treated with 100 nM DzControl or DzT790M-1 with lipofectamine 2000 (Invitrogen). After 48 h, total mRNA was extracted. […] DzT790M-1 knocked down 68.2% and 77.4% T790M EGFR mRNA expression in H1975 and CL97 cells respectively. In contrast, in A549 and CL1-5 cells, only 1.1% and 19.2% wild-type EGFR mRNA expression was affected.
# wild-type EGFR mRNA = assay: Quantitative real-time PCR of EGFR mRNA knockdown; format: cell-based, human; settings: 100 nM, 48 h
# Experimental: as §1, §2
# To examine the allele selectivity of DzT790M-1, EGFR mRNA knockdown efficiency was detected in two cell lines harboring wild-type EGFR (A549, CL1-5) and two cell lines containing EGFR T790M mutation (H1975, CL97). A549, CL1-5, H1975, or CL97 was seeded onto 6-well at 3×10^5 cells/well and cultured overnight. […]
# Then, A549 and PC9 cells were separately treated with 50, 100, or 150 nM control DNAzyme or DzEGFR—ΔE746-A750 with Lipofectamine 2000 for 48 h. […] Quantitative RT-PCR was performed on 40 ng total mRNA with the LightCycler 480 system (Roche). […] Data were analyzed by LC480 software (Roche Diagnostics). […]
# CL97 cells = assay: Apoptosis assay (annexin V and PI, flow cytometry); format: cell-based, human; settings: 100 nM, 48 h
# Experimental: (§3) H1975 or CL97 was seeded onto 10-cm dish and cultured overnight. Then, cells were separately treated with 100 nM DzControl or DzT790M-1 with lipofectamine 2000 (Invitrogen). After 48 h, cells were collected, double stained by annexin V and PI, and analyzed by flow cytometry following the protocol of Dead cell apoptosis kit from manufacturer (Invitrogen).
# H1975 cells = assay: Apoptosis assay (annexin V and PI, flow cytometry); format: cell-based, human; settings: 100 nM, 48 h
# Experimental: as §3
# H1975 cells (EGFR T790M) = assay: Cell viability assay (MTT); format: cell-based, human; settings: 100 nM by lipofectamine transfection, 72 h
# [1] = system: T790M-harboring cancer cells; assay: Anti-proliferation comparison of T790M DNAzymes; format: cell-based
# EGFR T790M [2] = molecular target: EGFR T790M (Homo sapiens, UniProt P00533, L858R/T790M); assay: Western immunoblotting of EGFR expression and downstream signaling in EGFR T790M mutant cell lines; settings: H1975^TM/LR; 100 nM; 72 h; 100 ng/ml EGF 15 min
# Experimental: (§4) Cells were harvested 72 h after transfecting with 100 nM DzC or DzT. 100 ng/ml EGF were added into culture medium 15 min before cell lysates were harvested. Cell lysates were analyzed by immunoblotting with indicated primary antibodies.
# (§5) Cells were harvested 72 h after transfecting with 100 nM cDzC or cDzT. 100 ng/ml EGF were added into culture medium 15 min before cell lysates were harvested. Cell lysates were analyzed by immunoblotting with indicated primary antibodies.
# (§6) A549, CL1-5, H1975, or CL97 was seeded onto 6-well at 3×10^5 cells/well and cultured overnight. […] The transfected A549 and CL1-5 cells were serum-starved for 24 h and treated with 100 ng/ml of EGF at 37° C. for 15 min. 72 h after transfection, cell were collected for analysis. Cells were washed twice by ice-cold PBS and then total protein was extracted by RIPA buffer with protease inhibitor (Roche). 50 μg of total protein from the supernatants were boiled for 5 min at 95° C. The samples were resolved on 10% SDS-PAGE gel and transferred onto nitrocellulose membranes. […] Secondary antibodies against rabbit IgG or mouse IgG was used at 1:5000 dilution. Protein bands on membrane were visualized by exposure to the chemiluminescence substrate.
# (§7) To examine the effects of DzT790M on protein expression level of EGFR and its downstream signaling, western immunoblotting was performed on DzT790M transfected cells. A549, CL1-5, H1975, or CL97 was seeded onto 6-well at 3×10^5 cells/well and cultured overnight. […] The transfected A549 and CL1-5 cells were serum-starved for 24 h and treated with 100 ng/ml of EGF at 37° C. for 15 min. 72 h after transfection, cell were collected for analysis. Cells were washed twice by ice-cold PBS and then total protein was extracted by RIPA buffer with protease inhibitor (Roche).
# (§8) The transfected CL1-5 cells were serum-starved for 24 h and treated with 100 ng/ml of EGF at 37° C. for 15 min. 72 h after transfection, cells were collected for western blotting analysis following the above mentioned procedure. Expression of EGFR and downstream signaling were examined by primary antibodies against human pEGFR (Y1068), tEGFR, pSTAT3 (Y705), tSTAT3, pAKT (S473), tAKT, pERK (T202/Y204), and tERK at 1:1000 dilution and β-actin at 1:10000 dilution, respectively.
# (§9) H1975 was seeded onto 6-well at 3×10^5 cells/well and cultured overnight. […] 72 h after transfection, cells were collected for western blotting analysis following the above mentioned procedure. Expression of EGFR and downstream signaling were examined by primary antibodies against human pEGFR(Y1068), tEGFR, pSTAT3 (Y705), tSTAT3, pAKT (S473), tAKT, pERK (T202/Y204), and tERK at 1:1000 dilution and β-actin at 1:10000 dilution, respectively.
# (§10) H1975^TM/LR and CL97^TM/GA cells were harvested 72 h after transfecting with DzC or DzT. […]
# EGFR T790M [3] = assay: as above; settings: 100 nM
# Experimental: as §4, §5, §6, §7, §8, §9, §10
substance,measurement,setting,value
"DzT790M-1: 10-23 DNAzyme against EGFR T790M mRNA, arms 10/4, phosphorothioate ends: AGCTGCATGAGGCTAGCTACAACGAGAGC (DNA dA*dGdCdTdGdCdAdTdGdAdGdGdCdTdAdGdCdTdAdCdAdAdCdGdAdGdAdG*dC; further chemistry not fully specified)",T790M EGFR mRNA expression knocked down (quantitative real-time PCR),T790M EGFR mRNA; CL97 cells,77.4%
same,T790M EGFR mRNA expression knocked down (quantitative real-time PCR),T790M EGFR mRNA; H1975 cells,68.2%
same,increased knockdown efficiency toward T790M EGFR mRNA over wild-type counterpart,"T790M EGFR mRNA; quantitative real-time PCR, H1975, CL97 vs A549, CL1-5",at least 3.5 fold
same,wild-type EGFR mRNA knockdown,wild-type EGFR mRNA; A549 cells,1.1%
same,wild-type EGFR mRNA knockdown,wild-type EGFR mRNA; CL1-5 cells,19.2%
same,percentage of apoptotic cells in whole cell population,CL97 cells,27.4%
same,percentage of dead cells in whole cell population,CL97 cells,25.1%
same,apoptotic cells,H1975 cells,18.6%
same,dead cells (annexin V and PI double positive),H1975 cells,32.6%
same,anti-proliferation effect,H1975 cells (EGFR T790M),50%
same,"anti-proliferation effect on T790M-harboring cancer cells, ranking among SEQ ID NOs:1-7",[1],most effective
same,"EGFR protein expression and downstream signaling including EGFR, STAT3, and ERK after EGF treatment",EGFR T790M [2],remained its suppression effect
same,"phosphorylation of EGFR Y1068, STAT3 Y705, AKT S473 and ERK T202/Y204","EGFR T790M [3]; H1975 and CL97 cells, 72 h, ERK not in H1975 cells",decreased phosphorylation
same,EGFR protein expression,"EGFR T790M [3]; H1975 and CL97 cells, 72 h after transfection",significantly silenced
same,EGFR T790M expression and downstream signaling after EGF treatment,"EGFR T790M [3]; T790M mutant cells, 72 h, 100 ng/ml EGF 15 min",remains its suppression effect
